The assay deals with GluR6 glutamate receptor. The assay can be described thus: Whole-cell current recording with cell-flow method, HEK 293 cells expressing GluR6. As to conditions: 1 mM DECM, −60 mV, pH 7.4, 22° C. It is filed as cell-based. The source says:
In whole-cell current recording experiments with DECM-caged glutamate, HEK 293 cells stably transfected with cDNA encoding the GluR6 were used. In whole-cell current recording experiments with DECM-caged glycine, HEK 293 cells were transiently transfected with the cDNA of the α1-subunit of the human glycine receptor by using the Polyfect™ transfection reagent (Qiagen GmbH, D-40724, Hilden, Germany). The cDNA of the α1-subunit was kindly provided by Professor H. Betz (Max-Plank-Institute for brain Research, Frankfurt, Germany). The cells were co-transfected with cDNA encoding the green fluorescent protein (pGreen Lantern plasmid, Life Technologies, Gaitherberg, Md.) to detect transfected cells (Chalfie et al., “Green Fluorescent Protein as a Marker for Gene Expression,” Science 263:802-805 (1994), which is hereby incorporated by reference in its entirety).
The cells were used for electrophysiological experiments between 24 and 72 h after each passage. Whole-cell currents evoked by glutamate or glycine (100 μM) were recorded using the whole-cell configuration (Hamill et al., “Improved Patch-Clamp Techniques for High-Resolution Current Recording From Cells and Cell-Free Membrane Patches,” Pfluegers Arch 391:85-100 (1981), which is hereby incorporated by reference in its entirety) at room temperature, −60 mV, and pH 7.4. The experiments using DECM-caged glutamate were carried out in the absence or presence of 2 mM DECM-caged glutamate (FIG. 5A) or 1 mM 7-N,N-diethylamino-4-hydroxymethylcoumarin (2) (FIG. 5B). Alternatively, the experiments using DECM-caged glycine were carried out in the absence or presence of 1 mM DECM-caged-glycine (FIG. 10). The solution in the recording pipet contained 120 mM CsCl, 10 mM EGTA, and 10 mM HEPES, adjusted to pH 7.4. The HEK cell bath solution contained 150 mM NaCl, 1 mM CaCl2, 10 mM HEPES, pH 7.4. The resistance of the recording electrode filled with buffer solution was typically 3-5 MΩ and the series resistance was 5-6 MΩ. The cells were held at a constant transmembrane voltage of −60 mV and room temperature (22° C.). […]

On to `CCN(CC)c1ccc2c(CO)cc(=O)oc2c1` [DECM, 7-N,N-Diethylamino-4-hydroxymethylcoumarin], for which the “whole-cell current evoked by 100 μM glutamate, presence vs absence of compound” value is given as “do not inhibit”.

For the origin of these results see patent publication US8053585B2, “Protecting group for carboxylic acids that can be photolyzed by visible light” (Cornell Research Foundation, Inc., priority 2006, dated 2011).
